In PubChem BioAssay (NCI):
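Results reflect a 48-hour exposure of cells in 96-well plates to compound at five concentrations. At the TGI there is no net growth.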

How the values were obtained:
Assay in all cases: growth of human tumour cells (NCI), 48 h
[1] = test system: A498 renal
[2] = test system: HT29 colon
[3] = test system: RPMI-8226 leukemia
[4] = test system: COLO 205 colon
[5] = test system: NCI-H460 lung
[6] = test system: MDA-MB-231 breast
[7] = test system: MCF7 breast
[8] = test system: DU-145 prostate
[9] = test system: HOP-62 NSCLC
[10] = test system: IGROV1 ovarian
[11] = test system: ACHN renal
[12] = test system: UO-31 renal
[13] = test system: SR leukemia
[14] = test system: SK-MEL-2 melanoma
[15] = test system: MOLT-4 leukemia
[16] = test system: SNB-19 CNS
[17] = test system: OVCAR-5 ovarian
[18] = test system: SF-268 CNS
[19] = test system: NCI/ADR-RES ovarian
[20] = test system: HS 578T breast
[21] = test system: MDA-N
[22] = test system: U251 CNS
[23] = test system: OVCAR-8 ovarian
[24] = test system: OVCAR-3 ovarian
[25] = test system: HL-60(TB) leukemia
[26] = test system: SN12C renal
[27] = test system: SF-539 CNS
[28] = test system: HOP-92 NSCLC
[29] = test system: 786-0 renal
[30] = test system: T-47D breast
[31] = test system: UACC-257 melanoma
[32] = test system: K-562 leukemia
[33] = test system: SK-MEL-28 melanoma
[34] = test system: HCT-15 colon
[35] = test system: BT-549 breast
[36] = test system: KM12 colon
[37] = test system: M14 melanoma
[38] = test system: UACC-62 melanoma
[39] = test system: PC-3 prostate
[40] = test system: EKVX NSCLC
[41] = test system: SK-OV-3 ovarian
[42] = test system: CCRF-CEM leukemia
[43] = test system: SW-620 colon
[44] = test system: HCT-116 colon
[45] = test system: OVCAR-4 ovarian
[46] = test system: LOX IMVI melanoma
[47] = test system: SF-295 CNS
[48] = test system: TK-10 renal
[49] = test system: MDA-MB-435
[50] = test system: SK-MEL-5 melanoma
[51] = test system: HCC-2998 colon
[52] = test system: SNB-75 CNS
[53] = test system: CAKI-1 renal
[54] = test system: A549 NSCLC
[55] = test system: RXF 393 renal
[56] = test system: NCI-H522 lung
[57] = test system: NCI-H23 lung
[58] = test system: MALME-3M melanoma

Oc1ccc(/C=C/c2cccc(/C=C/c3ccc(O)c(O)c3)n2)cc1O
TGI [1]: 26.2 µM | TGI [2]: 24.5 µM | TGI [3]: 31.1 µM | TGI [4]: 28.9 µM | TGI [5]: 38.1 µM | TGI [6]: 76.7 µM | TGI [7]: 25.8 µM | TGI [8]: 20.6 µM | TGI [9]: > 100 µM | TGI [10]: 19.6 µM | TGI [11]: 18.7 µM | TGI [12]: 11.2 µM | TGI [13]: 14.5 µM | TGI [14]: 32.5 µM | TGI [15]: 17.8 µM | TGI [16]: 18.8 µM | TGI [17]: 23.6 µM | TGI [18]: 23.3 µM | TGI [19]: 26.7 µM | TGI [20]: > 100 µM | TGI [21]: 20.5 µM | TGI [22]: > 100 µM | TGI [23]: 20.8 µM | TGI [24]: > 100 µM | TGI [25]: 13.4 µM | TGI [26]: 27.5 µM | TGI [27]: 9.39 µM | TGI [28]: 25.3 µM | TGI [29]: 24.7 µM | TGI [30]: 7.06 µM | TGI [31]: 28.5 µM | TGI [32]: 49.6 µM | TGI [33]: 38.3 µM | TGI [34]: > 100 µM | TGI [35]: > 100 µM | TGI [36]: 36.2 µM | TGI [37]: 16.9 µM | TGI [38]: 18.6 µM | TGI [39]: > 100 µM | TGI [40]: 25.5 µM | TGI [41]: 34 µM | TGI [42]: > 100 µM | TGI [43]: > 100 µM | TGI [44]: 20.1 µM | TGI [45]: > 100 µM | TGI [46]: 21.7 µM | TGI [47]: 65.1 µM | TGI [48]: 23.6 µM | TGI [49]: 28 µM | TGI [50]: 15.8 µM | TGI [51]: 33.1 µM | TGI [52]: 16.5 µM | TGI [53]: 90.5 µM | TGI [54]: 22.2 µM

C/C(=N\NC(=O)c1ccc(Cl)cc1)c1nc2ncccc2[nH]1
TGI [1]: > 100 µM | TGI [2]: > 100 µM | TGI [3]: > 100 µM | TGI [4]: 96.3 µM | TGI [55]: 55.4 µM | TGI [5]: > 100 µM | TGI [6]: > 100 µM | TGI [7]: > 100 µM | TGI [8]: > 100 µM | TGI [9]: > 100 µM | TGI [10]: > 100 µM | TGI [11]: 44.7 µM | TGI [12]: > 100 µM | TGI [13]: > 100 µM | TGI [14]: > 100 µM | TGI [15]: 90.6 µM | TGI [16]: > 100 µM | TGI [17]: > 100 µM | TGI [18]: > 100 µM | TGI [19]: 50.1 µM | TGI [20]: 93.5 µM | TGI [21]: > 100 µM | TGI [56]: 58.3 µM | TGI [22]: > 100 µM | TGI [23]: 58.6 µM | TGI [24]: 81.5 µM | TGI [25]: 70.2 µM | TGI [26]: > 100 µM | TGI [27]: 40.3 µM | TGI [29]: 55.3 µM | TGI [30]: > 100 µM | TGI [31]: 79.9 µM | TGI [32]: > 100 µM | TGI [57]: > 100 µM | TGI [33]: > 100 µM | TGI [34]: > 100 µM | TGI [35]: 85.5 µM | TGI [36]: > 100 µM | TGI [37]: > 100 µM | TGI [38]: 55.4 µM | TGI [39]: > 100 µM | TGI [40]: > 100 µM | TGI [41]: 60.5 µM | TGI [42]: > 100 µM | TGI [43]: > 100 µM | TGI [44]: > 100 µM | TGI [45]: 47.9 µM | TGI [58]: 48.9 µM | TGI [46]: 57.8 µM | TGI [47]: > 100 µM | TGI [48]: 64.9 µM | TGI [49]: > 100 µM | TGI [50]: 55.6 µM | TGI [51]: > 100 µM | TGI [52]: 17.9 µM | TGI [53]: > 100 µM | TGI [54]: > 100 µM
